The source of these data is publication PMC9937538 (Journal of Medicinal Chemistry, 2022).

The target of data set [1] is T1, purified recombinant human DPP IV (Homo sapiens, UniProt P27487).
T1 construct: purchased Cayman Chemicals (Michigan)
The experiment in a line: In vitro DPP IV activity assay (fluorogenic Gly-Pro-AMC substrate). It counts as biochemical. Particulars: mean from three different assays. As to the method:
The DPP IV inhibition activities of the entire sets of compounds were carried out on purified recombinant human DPP IV using conditions previously optimized.[35]
Four independent in vitro experiments were carried out, and each of those was performed in triplicate in a white half-volume 96-well solid plate. […] Afterward, the samples were mixed and 50 μL was transferred to each plate well. Each reaction was started by adding 50 μL of the substrate solution (200 μM H-Gly-Pro-7-amido-4-methylcoumarin (AMC)) to each well and incubated at 37 °C for 30 min. […] The DPP IV enzyme and the substrate solution were provided by Cayman Chemicals (Michigan).

A further data set deals with T2, human cloned α1a-AR (Homo sapiens, UniProt P35348).
T2 construct: expressed in transfected cells
T2 sequence (P35348 1-466): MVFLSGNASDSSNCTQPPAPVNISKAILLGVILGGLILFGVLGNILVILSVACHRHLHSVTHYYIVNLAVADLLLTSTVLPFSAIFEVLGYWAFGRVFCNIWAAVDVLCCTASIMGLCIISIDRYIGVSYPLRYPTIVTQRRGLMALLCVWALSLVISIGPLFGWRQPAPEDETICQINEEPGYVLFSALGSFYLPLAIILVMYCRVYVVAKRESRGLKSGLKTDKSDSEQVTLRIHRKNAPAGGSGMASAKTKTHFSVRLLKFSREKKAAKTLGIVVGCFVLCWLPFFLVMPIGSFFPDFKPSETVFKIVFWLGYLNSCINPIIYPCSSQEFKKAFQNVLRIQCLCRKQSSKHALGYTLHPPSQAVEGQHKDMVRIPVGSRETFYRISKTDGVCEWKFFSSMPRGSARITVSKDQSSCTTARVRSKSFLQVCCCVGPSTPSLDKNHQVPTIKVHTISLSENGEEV
Briefly: α1a-AR binding assay ([3H]prazosin displacement). Particulars: human cloned α1a-AR expressed in HEK293 cells. The text has this:
Since WB-4101 is a potent α1 antagonist, this adrenoreceptor subtype was chosen to assess the loss of adrenergic affinity.
Figure S3. […] Curves […]
from single experiments were fitted using the standard four parameter logistic equation and represent the mean ± S.E.M. of 4 observations, 2 experi-ments. X-axis: Log concentrations of competitive test compounds. Y-axis: normalized [3H]prazosin Bound/Total bound.
In the table are reported the affinity constants, expressed as pKi (-log Ki), of compounds 11, 12 and WB-4101 for human cloned α1a-AR expressed in HEK293 cells. The values represent the arithmetic mean ± S.E.M. of 4 observations, 2 experiments.
ND, not determinable; NA, not available.
Note: data generated from binding assays were analyzed using Prism 5.02 (GraphPad Software Inc., San Diego, CA) and were fitted to a parametric function to derive best estimates of the IC50 and slope factor (nH); IC50 values were then converted to binding constant Ki according to Cheng-Prus- […]
The details on the α1a-AR binding assay have been described before2.
(1 picture or pasted object on this page, not shown here)

Data set [2] has as its target T3, DPP IV activity expressed by nondifferentiated Caco-2 cells (Homo sapiens, UniProt P27487).
T3 construct: Caco-2 cells that express high levels of DPP IV on their cellular membranes; endogenous in cells; host or cells: Caco-2 cells (INSERM, Paris)
The format is cell-based. As to the method: The data are represented as the means ± standard deviation (SD) of three independent experiments, performed in triplicate. Statistical analysis was performed by one-way analysis of variance (ANOVA), followed by Tukey’s post hoc test. ns: not significant; (**), p < 0.01, (****) p < 0.0001; C: control cells.
A total of 3 × 10^4 Caco-2 cells/well were seeded in black 96-well plates with clear bottoms.

Data set [3] is described as follows: Solubility in phosphate-buffered saline (LC-MS/MS). It counts as physicochemical. As to conditions: pH 7.4, read-out: soluble concentration. As to the method:
The solubility of compound 12 was determined in phosphate-buffered saline at a pH of 7.4 through a suitable liquid chromatography and tandem mass spectrometry (LC-MS/MS) method, as described in the Experimental Section.

A short description of data set [4]: Hepatic microsome stability. Particulars: after 120 min of incubation. The format is in vitro ADME. As to the method: To predict the metabolic fate as well as the susceptibility of compound 12 to phase I metabolism following the in vivo administration, it was incubated with human (Sekisui XenoTech, LLC), CD-1 mouse (BioIVT), and Sprague-Dawley (SD) rat liver microsomes (Corning), as described in the Experimental Section.

For data set [5], the system named is Caco-2 cells. The experiment in a line: Uptake by Caco-2 cells (intrinsic fluorescence, normalized with Janus Green). The format is in vitro ADME, human. As to conditions: 1.0 μM. As to the method:
The ability of compound 12 to be uptaken by Caco-2 cells was assessed, exploiting its natural behavior to emit fluorescence at 313 nm after excitation at 250 nm using a fluorescent plate reader. […] Fluorescence signals emitted at 313 nm by the compound localized at the intracellular level as a function of time have been normalized for the total amount of cells stained using Janus Green (OD 595 nm); therefore, the relative fluorescence unit (RFU) 313/595 nm after 15, 30, and 60 min of incubation was calculated. The RFU 313/595 nm of the blank samples, which represents the cellular background, was subtracted from each normalized fluorescence signal. […] In particular, compound 12 is absorbed by Caco-2 cells up to 2874 ± 383.1, 4562 ± 993.2, and 6250 ± 1163RFU after 15, 30, and 60 min, respectively (Figure 7).

Data set [6] deals with Caco-2 cells. The experiment in a line: MTT assay. It counts as cell-based, human. Particulars: 10^–8 to 10^–5 M, 48 h. As to the method: (§1) The cytotoxicity of the active compound 12 was determined. Cell viability was assessed by the quantitative colorimetric method of the MTT reduction on Caco-2 and HepG2 cells.
(§2) A total of 3 × 10^4 Caco-2 and HepG2 cells/well were seeded in 96-well plates and treated with 11 and 12 from 10^–8 to 10^–5 M or vehicle (H2O) in complete growth media for 48 h at 37 °C under a 5% CO2 atmosphere. Subsequently, the treatment solvent was aspirated and 100 μL/well of 3-(4,5-dimethylthiazol-2-yl)-2,5-diphenyltetrazolium bromide (MTT) filtered solution was added. After 2 h of incubation at 37 °C under a 5% CO2 atmosphere, 0.5 mg/mL solution was aspirated and 100 μL/well of the lysis buffer (8 mM HCl + 0.5% NP-40 in DMSO) was added. After 10 min of slow shaking, the absorbance at 575 nm was read on a Synergy H1 fluorescence plate reader (Biotek, Bad Friedrichshall, Germany).

For another data set, the system named is HepG2 cells. The experiment in a line: MTT assay. The format is cell-based, human. As to conditions: 10^–8 to 10^–5 M, 48 h. As to the method: as §1, §2
In general terms: Tetrazolium dyes change colour on reduction, which living cells bring about.

A further data set addresses hCA IX (Homo sapiens, UniProt Q16790). The experiment in a line: CA inhibition, stopped-flow CO2 hydration assay. As to conditions: read-out: Ki CA IX; stopped-flow technique, mean from three assays.

In brackets after ≈: the same amount, converted by molar mass. Several values for one entry are separate records, joined by “and”; a condition that tells them apart may be missing. Equal entries are not always repeated.

What is called IC50 is the concentration needed to halve the response being measured. Usually Ki stands for a dissociation constant, usually derived from enzyme kinetics or from competition with a known ligand.

T3 sequence (P27487 whole entry): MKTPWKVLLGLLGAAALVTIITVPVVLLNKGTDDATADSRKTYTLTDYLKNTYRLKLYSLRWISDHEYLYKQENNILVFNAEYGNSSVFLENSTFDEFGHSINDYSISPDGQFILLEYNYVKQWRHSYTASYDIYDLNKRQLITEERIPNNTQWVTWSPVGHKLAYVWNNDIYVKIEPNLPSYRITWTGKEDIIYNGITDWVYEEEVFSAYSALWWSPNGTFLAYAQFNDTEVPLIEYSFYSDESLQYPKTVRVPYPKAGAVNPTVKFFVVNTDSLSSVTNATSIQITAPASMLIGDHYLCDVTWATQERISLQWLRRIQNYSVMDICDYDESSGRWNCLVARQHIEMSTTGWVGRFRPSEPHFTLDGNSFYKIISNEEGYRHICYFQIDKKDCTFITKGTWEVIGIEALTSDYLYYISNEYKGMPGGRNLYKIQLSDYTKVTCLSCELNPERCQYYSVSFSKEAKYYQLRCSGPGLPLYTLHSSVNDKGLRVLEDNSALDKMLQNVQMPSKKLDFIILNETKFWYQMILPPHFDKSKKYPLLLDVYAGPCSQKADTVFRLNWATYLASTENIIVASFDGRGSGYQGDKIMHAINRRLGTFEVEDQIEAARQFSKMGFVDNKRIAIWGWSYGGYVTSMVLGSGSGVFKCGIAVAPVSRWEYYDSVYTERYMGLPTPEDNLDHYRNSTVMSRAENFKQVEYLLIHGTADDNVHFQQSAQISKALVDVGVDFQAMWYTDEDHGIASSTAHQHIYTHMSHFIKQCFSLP
T1 sequence (P27487 whole entry): as above
Procedure for hCA IX: An applied photophysics stopped-flow instrument was used for assaying the CA-catalyzed CO2 hydration activity.[37]
The uncatalyzed rates were determined in the same manner and subtracted from the total observed rates. Stock solutions of the inhibitor (0.1 mM) were prepared in distilled–deionized water, and dilutions up to 0.01 nM were done thereafter with the assay buffer. Inhibitor and enzyme solutions were preincubated together for 15 min at room temperature prior to the assay to allow for the formation of the E–I complex. The inhibition constants were obtained by nonlinear least-squares methods using PRISM 3 and the Cheng–Prusoff equation, as reported earlier, and represent the mean from at least three different determinations. All CA isoforms were recombinant proteins obtained in-house, as reported earlier.[44]−[46]

In the case of `NC(CCOc1ccc(S(N)(=O)=O)cc1)C1COc2ccccc2O1` (centres unmarked) [Compound 12, 4-(3-Amino-3-(1,4-benzodioxan)propoxy)benzenesulfonamide], in data set [1], the IC50 was found to be 49 ± 4.5 nM. The “nH α1a-AR (slope factor)” value at human cloned α1a-AR worked out at 0.97 ± 0.27. Also, the “pKi α1a-AR” value on human cloned α1a-AR (mean ± S.E.M.) was found to be 6.61. In addition, the “inhibition of cellular DPP IV activity vs untreated cells” value in data set [2] was 60.65 ± 4.92% and 71.86 ± 4.27%. In addition, the solubility in data set [3] was 224 µM (≈ 81.6 µg/mL). Moreover, the values for the compound remaining in data set [4] (human liver microsomes), in [4] (mouse liver microsomes) and in [4] (rat liver microsomes) were 72.6%, 27.5% and 16.7%, respectively. Besides, the “intracellular fluorescence RFU 313/595 nm (uptake)” value with Caco-2 cells [5] (15 min) turned out to be 2874 ± 383.1 RFU; in the data set with Caco-2 cells [5] (30 min), 4562 ± 993.2 RFU; with Caco-2 cells [5] (60 min) it was 6250 ± 1163 RFU. For the same compound, the “cell viability (MTT reduction)” value in the data set on Caco-2 cells [6] and in the data set on HepG2 cells was “maintain their metabolic activity” each time. Moreover, on hCA IX, the Ki is 133 nM.
